Here are results for 14 molecules from ChEMBL document CHEMBL5634176, “Expression of Syo_1.56 SARP Regulator Unveils Potent Elasnin Derivatives with Antibacterial Activity” (J Nat Prod, 2024).

One data set has as its system Plasmodium falciparum. The experiment in a line: Antimalarial activity against Plasmodium falciparum 3D7 infected in human erythrocytes measured after 72 hrs by absorbance based analysis. The following applies: 3D7, 72 h. Type of data set: functional, organism-based.
Data set [1] has as its system Escherichia coli. The data set is described as follows: Antibacterial activity against Escherichia coli HO141 incubated for 24 hrs by absorbance based analysis. Type of data set: functional, organism-based. The following applies: HO141, 24 h.
Data set [2] concerns Staphylococcus aureus. The experiment in a line: Antibacterial activity against methicillin resistant Staphylococcus aureus ATCC BAA-1717 by CLSI protocol based assay. Type of data set: functional.
Data set [3] can be described thus: Cytotoxicity against human HeLa cells incubated for 48 hrs by WST-8 assay. Type of data set: toxicity, cell-based. (Tetrazolium assays rely on reduction of a dye to a coloured formazan, in cell work by metabolically active cells.)
For data set [4], the system named is Staphylococcus aureus. The experiment in a line: Antibacterial activity against methicillin resistant Staphylococcus aureus NCTC8173 by CLSI protocol based assay. The data set is classed as functional.
Data set [5] has as its system Staphylococcus aureus. The experiment in a line: Antibacterial activity against methicillin resistant Staphylococcus aureus ATCC BAA-1718 by CLSI protocol based assay. The data set is classed as functional.
For data set [6], the system named is Staphylococcus aureus. The data set is described as follows: Antibacterial activity against methicillin sensitive Staphylococcus aureus FDA209P by CLSI protocol based assay. Type of data set: functional.
Data set [7] can be described thus: Inhibition of metallo-beta lactamase (unknown origin) by nitrocefin method. Also noted: species or system Bacteria.
Data set [8] in a line: Cytotoxicity against human HL-60 cells incubated for 48 hrs by WST-8 assay. The data set is classed as toxicity, cell-based.
For data set [9], the system named is Staphylococcus aureus. The experiment in a line: Antibacterial activity against Staphylococcus aureus 209 incubated for 24 hrs by absorbance based analysis. The data set is classed as functional, organism-based. The following applies: Staphylococcus aureus, 209, 24 h.
The subject of data set [10] is Staphylococcus aureus. The experiment in a line: Antibacterial activity against methicillin resistant Staphylococcus aureus 92-1191 by CLSI protocol based assay. The data set is classed as functional.
Data set [11] deals with Escherichia coli. The experiment in a line: Potentiation of meropenem induced antibacterial activity against drug-resistant Escherichia coli KB366 expressing metallo-betalactamase by agar disk diffusion method. Type of data set: functional, organism-based. On the technique in general: In agar diffusion tests the substance spreads into inoculated agar from a disc or well.

Values after ≈ are worked out from the molar mass of the structure shown. Active and inactive are the calls of the source. No cut-off for these calls is given here. Bounds are passed on as bounds.

In the case of `CCCCCc1oc(=O)c(CCCC)c(O)c1CCCC`, the IC50 in the data set with Plasmodium falciparum was 1.9 µg/mL (≈ 6.45 µM); in the data set on Escherichia coli [1] it was above 10 µg/mL; in data set [7], above 100 µM; in the data set on Staphylococcus aureus [9] it was 1.3 µg/mL (≈ 4.42 µM). Besides, the MIC against Staphylococcus aureus [2], against Staphylococcus aureus [4], with Staphylococcus aureus [5], in the data set with Staphylococcus aureus [6] and with Staphylococcus aureus [10] was 15 µg/mL (≈ 50.9 µM) in each case. Besides, the half-maximal inhibitory concentration (IC50) at 48 h in [3] and in data set [8] was above 10 µg/mL each time.

As to `C[C@@H](O)[C@H]1C(=O)N2C(C(=O)O)=C(S[C@@H]3CN[C@H](C(=O)N(C)C)C3)[C@H](C)[C@H]12` [MEROPENEM], the MIC against Staphylococcus aureus [2] was determined as 16 µg/mL (≈ 41.7 µM); against Staphylococcus aureus [4] it was 0.125 µg/mL (≈ 0.326 µM); in the data set with Staphylococcus aureus [5], 0.125 µg/mL (≈ 0.326 µM); with Staphylococcus aureus [6] it was 0.031 µg/mL (≈ 0.0808 µM); in the data set with Staphylococcus aureus [10], 256 µg/mL (≈ 668 µM).

As to `CCCCc1c([C@H](CCC(C)C)C(=O)CCCC(C)C)oc(=O)c(CCCC)c1O`, the IC50 with Plasmodium falciparum was 7.7 µg/mL (≈ 18.3 µM); in the data set on Escherichia coli [1], above 10 µg/mL; in data set [7], above 100 µM; with Staphylococcus aureus [9] it was 0.5 µg/mL (≈ 1.19 µM). Further, the minimum inhibitory concentration (MIC) was found to be 2.5 µg/mL (≈ 5.94 µM) in the data set on Staphylococcus aureus [2]; 2.5 µg/mL (≈ 5.94 µM) in the data set on Staphylococcus aureus [4]; 2.5 µg/mL (≈ 5.94 µM) against Staphylococcus aureus [5]; 5 µg/mL (≈ 11.9 µM) with Staphylococcus aureus [6]; 5 µg/mL (≈ 11.9 µM) against Staphylococcus aureus [10]. In addition, the IC50 at 48 h in data set [3] is 8.9 µg/mL (≈ 21.2 µM); in [8], 9.3 µg/mL (≈ 22.1 µM).

In [7], `C[C@H](CS)C(=O)N1CCC[C@H]1C(=O)O` [CAPTOPRIL] yielded a half-maximal inhibitory concentration (IC50) of 69 µM.

As to `CCCCCCCc1oc(=O)c(CCCC)c(O)c1CCCC`, the IC50 with Plasmodium falciparum was 0.1 µg/mL (≈ 0.31 µM); in the data set with Escherichia coli [1], above 10 µg/mL; in [7], above 100 µM; in the data set on Staphylococcus aureus [9], 2.6 µg/mL (≈ 8.06 µM). Moreover, the MIC against Staphylococcus aureus [2] was determined as 16 µg/mL (≈ 49.6 µM); against Staphylococcus aureus [4] it was 8.1 µg/mL (≈ 25.1 µM); in the data set with Staphylococcus aureus [5], 8.1 µg/mL (≈ 25.1 µM); against Staphylococcus aureus [6], 16 µg/mL (≈ 49.6 µM); in the data set with Staphylococcus aureus [10], 8.1 µg/mL (≈ 25.1 µM). Also, the IC50 at 48 h in [3] and in data set [8] was above 10 µg/mL throughout.

For `CCCCCCc1c(O)c(CCCC)c([C@H](CCCC)C(=O)CCCCC)oc1=O`, the IC50 was 8 µg/mL (≈ 19 µM) in the data set with Plasmodium falciparum, above 10 µg/mL in the data set on Escherichia coli [1], above 100 µM in data set [7] and 0.8 µg/mL (≈ 1.9 µM) in the data set with Staphylococcus aureus [9]. In addition, the MIC against Staphylococcus aureus [2], with Staphylococcus aureus [4], in the data set on Staphylococcus aureus [5], with Staphylococcus aureus [6] and in the data set with Staphylococcus aureus [10] was 2.5 µg/mL (≈ 5.94 µM) throughout. The IC50 at 48 h came out at 7.6 µg/mL (≈ 18.1 µM) in [3] and 8.4 µg/mL (≈ 20 µM) in [8].

In the case of `CCCCc1c(O)c(CCC(C)C)c([C@H](CCCC)C(=O)CCCC(C)C)oc1=O`, the IC50 in the data set with Plasmodium falciparum was 6.3 µg/mL (≈ 15 µM); in the data set on Escherichia coli [1], above 10 µg/mL; in data set [7], above 100 µM; in the data set on Staphylococcus aureus [9], 0.5 µg/mL (≈ 1.19 µM). The MIC against Staphylococcus aureus [2], in the data set with Staphylococcus aureus [4], against Staphylococcus aureus [5], with Staphylococcus aureus [6] and in the data set with Staphylococcus aureus [10] was 2.5 µg/mL (≈ 5.94 µM) each time. In addition, the half-inhibitory concentration (IC50) at 48 h was determined as 6.3 µg/mL (≈ 15 µM) in data set [3] and 5.5 µg/mL (≈ 13.1 µM) in data set [8].

As for `CCCCCC(=O)[C@@H](CCCC)c1oc(=O)c(CC(C)C)c(O)c1CCCC`, the 50% inhibitory concentration (IC50) with Plasmodium falciparum is above 10 µg/mL; in the data set on Escherichia coli [1], above 10 µg/mL; in data set [7], above 100 µM; in the data set with Staphylococcus aureus [9], 1.6 µg/mL (≈ 4.08 µM). In addition, the MIC against Staphylococcus aureus [2] is 10 µg/mL (≈ 25.5 µM); in the data set with Staphylococcus aureus [4], 10 µg/mL (≈ 25.5 µM); against Staphylococcus aureus [5], 10 µg/mL (≈ 25.5 µM); in the data set with Staphylococcus aureus [6], 10 µg/mL (≈ 25.5 µM); with Staphylococcus aureus [10], 20 µg/mL (≈ 50.9 µM). Moreover, the IC50 at 48 h in [3] and in [8] was above 10 µg/mL in each case.

Consider `CCCCc1c(CCCC(C)C)oc(=O)c(CCCC)c1O`, for which the IC50 with Plasmodium falciparum is above 10 µg/mL; with Escherichia coli [1], above 10 µg/mL; in data set [7], above 100 µM; in the data set on Staphylococcus aureus [9], 1.3 µg/mL (≈ 4.21 µM). In addition, the MIC came to 7.7 µg/mL (≈ 25 µM) with Staphylococcus aureus [2]; 7.5 µg/mL (≈ 24.3 µM) against Staphylococcus aureus [4]; 7.5 µg/mL (≈ 24.3 µM) in the data set on Staphylococcus aureus [5]; 15 µg/mL (≈ 48.6 µM) with Staphylococcus aureus [6]; 15 µg/mL (≈ 48.6 µM) against Staphylococcus aureus [10]. Moreover, the IC50 at 48 h in data set [3] and in [8] was above 10 µg/mL throughout.

Consider `CCCCCC(=O)[C@@H](CCC(C)C)c1oc(=O)c(CCCC)c(O)c1CCCC`, for which the IC50 with Plasmodium falciparum is 6.9 µg/mL (≈ 17 µM); in the data set with Escherichia coli [1] it was above 10 µg/mL; in data set [7], above 100 µM; in the data set on Staphylococcus aureus [9], 0.5 µg/mL (≈ 1.23 µM). The MIC is 2.5 µg/mL (≈ 6.15 µM) against Staphylococcus aureus [2]; 2.5 µg/mL (≈ 6.15 µM) with Staphylococcus aureus [4]; 5 µg/mL (≈ 12.3 µM) in the data set on Staphylococcus aureus [5]; 5 µg/mL (≈ 12.3 µM) in the data set with Staphylococcus aureus [6]; 5 µg/mL (≈ 12.3 µM) against Staphylococcus aureus [10]. For the same molecule, the IC50 at 48 h in data set [3] and in [8] was 9.7 µg/mL (≈ 23.9 µM) throughout.

Take `CCCCc1c([C@H](CCCC)C(=O)CCCC(C)C)oc(=O)c(CCC(C)C)c1O`: the IC50 is 0.1 µg/mL (≈ 0.238 µM) in the data set on Plasmodium falciparum, above 10 µg/mL with Escherichia coli [1], 15.3 µM in data set [7] and 1.1 µg/mL (≈ 2.62 µM) in the data set on Staphylococcus aureus [9]. Moreover, the MIC in the data set with Staphylococcus aureus [2] turned out to be 3 µg/mL (≈ 7.13 µM); against Staphylococcus aureus [4], 3 µg/mL (≈ 7.13 µM); in the data set with Staphylococcus aureus [5], 3 µg/mL (≈ 7.13 µM); in the data set with Staphylococcus aureus [6], 3 µg/mL (≈ 7.13 µM); against Staphylococcus aureus [10], 6 µg/mL (≈ 14.3 µM). Further, the IC50 at 48 h in data set [3] and in data set [8] was 8.4 µg/mL (≈ 20 µM) throughout. Moreover, the result in the data set on Escherichia coli [11] was inactive.

On to `CCCCCC(=O)[C@@H](CCCC)c1oc(=O)c(CCC(C)C)c(O)c1CCCC`, for which the IC50 in the data set with Plasmodium falciparum was 1.3 µg/mL (≈ 3.2 µM); in the data set with Escherichia coli [1], above 10 µg/mL; in [7] it was 10.8 µM; with Staphylococcus aureus [9] it was 0.7 µg/mL (≈ 1.72 µM). In addition, the MIC was determined as 6 µg/mL (≈ 14.8 µM) against Staphylococcus aureus [2]; 3 µg/mL (≈ 7.38 µM) in the data set with Staphylococcus aureus [4]; 3 µg/mL (≈ 7.38 µM) against Staphylococcus aureus [5]; 6 µg/mL (≈ 14.8 µM) in the data set with Staphylococcus aureus [6]; 6 µg/mL (≈ 14.8 µM) in the data set with Staphylococcus aureus [10]. Moreover, the IC50 at 48 h is 7.3 µg/mL (≈ 18 µM) in data set [3] and 4.9 µg/mL (≈ 12.1 µM) in data set [8]. Moreover, the outcome in the data set with Escherichia coli [11] was inactive.

Take `CCCCc1c([C@H](CCCC)C(=O)CCC(C)C)oc(=O)c(CCCC)c1O`: the concentration for half-maximal inhibition (IC50) is 9.4 µg/mL (≈ 23.9 µM) with Plasmodium falciparum, above 10 µg/mL in the data set on Escherichia coli [1], above 100 µM in data set [7] and 1 µg/mL (≈ 2.55 µM) in the data set with Staphylococcus aureus [9]. Also, the MIC worked out at 5 µg/mL (≈ 12.7 µM) in the data set on Staphylococcus aureus [2]; 5 µg/mL (≈ 12.7 µM) with Staphylococcus aureus [4]; 5 µg/mL (≈ 12.7 µM) with Staphylococcus aureus [5]; 10 µg/mL (≈ 25.5 µM) with Staphylococcus aureus [6]; 10 µg/mL (≈ 25.5 µM) in the data set with Staphylococcus aureus [10]. In addition, the IC50 at 48 h in [3] and in data set [8] was above 10 µg/mL throughout.

For the molecule `CCCCCC(=O)[C@@H](CCCC)c1oc(=O)c(CCCC)c(O)c1CCCC`, the IC50 is 2.3 µg/mL (≈ 5.86 µM) with Plasmodium falciparum, above 10 µg/mL in the data set on Escherichia coli [1], 24.1 µM in data set [7] and 0.7 µg/mL (≈ 1.78 µM) with Staphylococcus aureus [9]. The MIC with Staphylococcus aureus [2], in the data set on Staphylococcus aureus [4], against Staphylococcus aureus [5], against Staphylococcus aureus [6] and in the data set on Staphylococcus aureus [10] was 5 µg/mL (≈ 12.7 µM) each time. In addition, the IC50 at 48 h in data set [3] and in [8] was above 10 µg/mL throughout. The outcome with Escherichia coli [11] was inactive.

By IC50 is commonly meant the concentration needed to halve the response being measured. One may read the MIC as the lowest concentration found to suppress growth. Low readings indicate a more susceptible organism, high ones a less susceptible organism.
